Test results reported in PMC10075506, “Synthesis and biological evaluation of flavonoid-based IP6K2 inhibitors” (Journal of Enzyme Inhibition and Medicinal Chemistry, 2023).

Columns and labels:
human IP6K3 = target: T1, human IP6K3 (Homo sapiens, UniProt Q96PC2); assay: ADP-Glo kinase assay, IP6K3 (Liao et al.'s conditions); type: biochemical; conditions: for IC50: IP6K3 120 nM, ATP 1 mM
T1 construct: made in house; host or cells: Sf9 insect cells (baculovirus, pFASTBAC1)
Protocol: (§1) Inhibition activity of the synthesised compounds against IP6K2 was assessed using ADP-Glo™ Kinase Assay (Promega). Kinase reaction mixtures were first shaking-incubated with individual drugs (diluted in DMSO) for pre-incubation at RT for 15 min, and then ATP was added (final 10 µM) to initiate the reaction. 20 ng of recombinant human IP6K2 protein was used per 15 µL of IP6K2 reaction mixture (50 mM Tris-HCl, pH 6.8, 10 mM MgCl2, 2.5 mM DTT, 0.02% Triton X-100, 10 µM IP6). […] Each detection set was prepared on 96-well (25 µL kinase reaction) as duplicates. Resulting enzyme activity was calculated as following; Activity (%) = ([ADPexperimental]/[ADPDMSO])×100. For IC50 estimation of compounds, kinase assay was prepared on 384-well plates (20 ng of recombinant human IP6K2 protein was used per 5 µL kinase reaction mixture) as duplicates. The final concentrations for IP6K2, IP6, and ATP were 80 nM, 10 μM, and 10 μM, respectively. […] IP6K1 and IP6K3 assays were performed by Liao et al.’s conditions.[25] The final concentrations for IP6K1, IP6, and ATP were 60 nM, 100 μM, and 1 mM, respectively. […] All statistical analyses including IC50 estimation was performed using Prism 7 or Prism 9 (Graphpad Software).
(§2) Full-length human IP6K1, IP6K2, or IP6K3 cDNA was subcloned into pFASTBAC1 plasmid (Gibco) with an N-terminal FLAG epitope sequence, and baculovirus was generated according to the manufacturer’s instructions. Sf9 insect cells were infected with baculovirus and incubated for 72 h. The cells were resuspended in lysis buffer [20 mM Tris–HCl (pH 7.9), 500 mM NaCl, 4 mM MgCl2, 0.4 mM EDTA, 2 mM DTT, 20% glycerol, 1 mM PMSF, and protease inhibitor cocktail (Roche)] and then disrupted with a Dounce homogeniser (pestle A, 3 series of 10 strokes with 10 min interval).

human IP6K1 = target: T2, human IP6K1 (Homo sapiens, UniProt Q92551); assay: ADP-Glo kinase assay, IP6K1 (Liao et al.'s conditions); type: biochemical; conditions: for IC50: IP6K1 60 nM, ATP 1 mM
T2 construct: made in house; host or cells: Sf9 insect cells (baculovirus, pFASTBAC1)
T2 sequence (Q92551 whole entry): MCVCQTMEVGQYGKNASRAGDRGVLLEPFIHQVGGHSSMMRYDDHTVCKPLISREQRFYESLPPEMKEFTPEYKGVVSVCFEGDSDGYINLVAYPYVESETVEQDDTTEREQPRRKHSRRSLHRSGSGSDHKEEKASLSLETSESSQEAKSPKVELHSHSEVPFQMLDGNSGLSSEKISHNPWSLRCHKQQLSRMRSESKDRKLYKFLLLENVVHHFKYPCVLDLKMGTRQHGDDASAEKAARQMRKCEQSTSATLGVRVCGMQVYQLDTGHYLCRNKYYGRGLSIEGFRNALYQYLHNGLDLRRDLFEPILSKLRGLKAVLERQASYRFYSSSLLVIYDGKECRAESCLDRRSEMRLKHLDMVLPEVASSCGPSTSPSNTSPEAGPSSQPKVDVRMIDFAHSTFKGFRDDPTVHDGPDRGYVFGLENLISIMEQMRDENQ
Protocol: as §1, §2

hIP6K2 = conditions: read-out: IC50 value of quercetin (IP6K2), reported; different IP6K2 enzyme concentration and reaction temperature; cited from earlier work
in vitro = conditions: PAMPA
From the text: Supporting Information Table 1.
artificial membrane permeability assay (PAMPA) as described previously (reference). The apparent permeability
(ranitidine, nadolol, hydrochlorothiazide).
Data are mean ± S.D. (n=3).
Reference: Oh, M.H., Lee, H.J., Jo, S.H., et al. Development of Cassette PAMPA for Permeability Screening. Biol Pharm

[1] = system: IP7 synthesis in human colorectal cell line (HCT116); assay: cellular IP7 synthesis in HCT116, HPLC of [3H]inositol-labelled inositol phosphates; type: cell-based; conditions: HCT116, compound 10 μM for 6 h
recombinant human IP6K2 = target: T3, recombinant human IP6K2 (Homo sapiens, UniProt Q9UHH9); assay: ADP-Glo kinase assay, IP6K2; type: biochemical
T3 construct: made in house; host or cells: Sf9 insect cells (baculovirus, pFASTBAC1)
T3 sequence (Q9UHH9 1-426): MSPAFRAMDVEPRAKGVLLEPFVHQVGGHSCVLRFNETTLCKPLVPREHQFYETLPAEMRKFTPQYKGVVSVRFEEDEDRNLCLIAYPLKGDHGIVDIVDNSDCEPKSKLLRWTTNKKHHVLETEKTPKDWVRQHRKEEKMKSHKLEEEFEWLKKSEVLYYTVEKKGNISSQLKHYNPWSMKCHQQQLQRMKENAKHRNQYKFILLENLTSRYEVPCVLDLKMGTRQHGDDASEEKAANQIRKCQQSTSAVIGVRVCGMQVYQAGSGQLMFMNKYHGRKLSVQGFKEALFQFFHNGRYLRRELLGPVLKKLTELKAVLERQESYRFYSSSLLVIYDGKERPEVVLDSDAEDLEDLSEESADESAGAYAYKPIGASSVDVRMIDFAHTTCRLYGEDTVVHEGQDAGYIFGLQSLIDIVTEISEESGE
Protocol: as §1, §2

[2] = final concentration of ATP and IP6 adjusted to 10 μM

T1 sequence (Q96PC2 whole entry): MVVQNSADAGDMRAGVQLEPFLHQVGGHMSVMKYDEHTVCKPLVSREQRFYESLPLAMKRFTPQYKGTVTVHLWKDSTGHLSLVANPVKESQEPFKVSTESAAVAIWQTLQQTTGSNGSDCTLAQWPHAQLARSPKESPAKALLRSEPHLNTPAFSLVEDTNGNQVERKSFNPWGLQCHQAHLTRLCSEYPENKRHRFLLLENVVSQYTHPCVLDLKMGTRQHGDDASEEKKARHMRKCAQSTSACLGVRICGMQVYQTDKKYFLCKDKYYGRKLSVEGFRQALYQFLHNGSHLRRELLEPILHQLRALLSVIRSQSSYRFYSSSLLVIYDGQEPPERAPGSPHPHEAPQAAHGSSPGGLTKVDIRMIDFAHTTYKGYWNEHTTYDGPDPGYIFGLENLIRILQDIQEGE

O=c1c(O)c(-c2ccc(O)c(O)c2)oc2cc(O)cc(O)c12 [Quercetin, 3,3′,4′,5,7-pentahydroxylflavone]
IC50 (human IP6K3; IP6 100 µM): 4350 nM
IC50 (human IP6K1; IP6 100 µM): 1100 nM
Papp (in vitro): 0.54 ×10⁻⁶ cm/s
Permeability class (in vitro): Low

O=C(O)c1cccc(-c2oc3cc(O)c(O)cc3c(=O)c2O)c1 [Compound 20s, 3–(3,6,7-Trihydroxy-4-oxo-4H-chromen-2-yl)benzoic acid]
IC50 (human IP6K3; IP6 100 µM): 3560 nM
IP6K3 /IP6K2 (IC50 ratio) (human IP6K3; IP6K3 at ATP 1 mM, IP6 100 µM, IP6K2 at ATP 10 µM, IP6 10 µM): 6.47
IC50 ratio of IP6K3/IP6K2 (human IP6K3; [2]): 2.32 fold
IC50 (human IP6K1; IP6 100 µM): 2870 nM
IP6K1 /IP6K2 (IC50 ratio) (human IP6K1; IP6K1 at ATP 1 mM, IP6 100 µM, IP6K2 at ATP 10 µM, IP6 10 µM): 5.22
IC50 ratio of IP6K1/IP6K2 (human IP6K1; [2]): 4.65 fold
cellular IP7 levels [1]: failed to reduce cellular IP7 levels
Papp (in vitro): < 0.18 ×10⁻⁶ cm/s
Permeability class (in vitro): Low
IC50 (recombinant human IP6K2): 550 ± 1 nM
fold more potent IP6K2 inhibition than quercetin (recombinant human IP6K2; IC50 compared with quercetin): 5 fold
fold more potent than compound 20r (IP6K2) (recombinant human IP6K2; meta -COOH versus para -COOH): approximately 7 fold
